Literature values as cited in patent US7611910B2, “Method for diagnosis of alzheimer's disease” (Intracell, LLC, priority 1998, dated 2009).

Details: patients treated with indomethacin

COc1ccc2c(c1)c(CC(=O)O)c(C)n2C(=O)c1ccc(Cl)cc1 [indomethacin]
progression of Alzheimer's disease: reduced progression
